Series [1] in a line: Metabolic stability in mouse liver microsomes assessed as intrinsic clearance in presence of NADPH regenerating system by UPLC-MS analysis. The series is classed as ADME, Microsome. To be noted: read-out: CLH. (In general: Liver microsomes are vesicles of endoplasmic reticulum, rich in cytochrome P450 enzymes.)
In series [2] the test system is SK-BR-3. As to the kind of experiment: Antiproliferative activity against human SK-BR-3 cells assessed as cell growth inhibition incubated for 72 hrs by MTS assay. It is filed as functional, cell-based. To be noted: SK-BR-3, 72 h. A general note: Tetrazolium dyes change colour on reduction, which living cells bring about.
Series [3] is described as follows: Metabolic stability in human liver microsomes assessed as intrinsic clearance in presence of NADPH regenerating system by UPLC-MS analysis. It is filed as ADME, Microsome. The conditions noted are these: read-out: CLH.
For series [4], the system named is MDA-MB-231. As to the kind of experiment: Antiproliferative activity against human MDA-MB-231 cells assessed as cell growth inhibition incubated for 72 hrs by MTS assay. The series is classed as functional, cell-based. To be noted: MDA-MB-231, 72 h.
In series [5] the test system is RPMI-7951. As to the kind of experiment: Antiproliferative activity against human RPMI-7951 cells assessed as cell growth inhibition incubated for 72 hrs by MTS assay. The series is classed as functional, cell-based. To be noted: RPMI-7951, 72 h.
Series [6] is described as follows: Metabolic stability in mouse liver microsomes assessed as half life in presence of NADPH regenerating system by UPLC-MS analysis. It is filed as ADME, Microsome. To be noted: for t1/2: microsomes.
For series [7], the system named is M14. The experiment in a line: Antiproliferative activity against human M14 cells assessed as cell growth inhibition incubated for 72 hrs by MTS assay. It is filed as functional, cell-based. To be noted: M14, 72 h.
The test system of series [8] is MDA-MB-453. As to the kind of experiment: Antiproliferative activity against human MDA-MB-453 cells assessed as cell growth inhibition incubated for 72 hrs by MTS assay. It is filed as functional, cell-based. The conditions noted are these: MDA-MB-453, 72 h.
Series [9] deals with A-375. The experiment in a line: Antiproliferative activity against human A-375 cells assessed as cell growth inhibition incubated for 72 hrs by MTS assay. The series is classed as functional, cell-based. The conditions noted are these: A-375, 72 h.
Series [10] is described as follows: Metabolic stability in human liver microsomes assessed as half life in presence of NADPH regenerating system by UPLC-MS analysis. The series is classed as ADME, Microsome. The conditions noted are these: for t1/2: microsomes.
The nature of series [11]: Induction of apoptosis in human A375/TxR cells assessed as apoptotic cells at 10 nM measured for 24 hrs by annexin VFITC /PI staining based analysis (reference value: […]). It is filed as functional.
Series [12] relates to M14. The experiment in a line: Cytotoxicity against human M14 cells measured after 72 hrs […]. To be noted: M14, 72 h. It is filed as functional, cell-based. Background: In western blotting, separated proteins are transferred to a membrane and probed.
In series [13] the test system is M14. The experiment in a line: Cytotoxicity against paclitaxel resistant human M14 cells measured after 72 hrs […]. It is filed as functional, cell-based. To be noted: M14, 72 h.
The nature of series [14]: Induction of cell cycle arrest in human A375/TxR cells assessed as accumulation at G2/M phase at 10 nM measured for 24 hrs by PI staining based flow cytometry analysis.

Consider 17 compounds from ChEMBL document CHEMBL5029155, “Design, Synthesis, and Biological Evaluation of Stable Colchicine-Binding Site Tubulin Inhibitors 6-Aryl-2-benzoyl-pyridines as Potential Anticancer Agents” (J Med Chem, 2021).

As a reminder, the IC50 is the concentration that gives 50% inhibition. As usually defined, the half-life is the time in which the quantity being followed falls by half.

With `COCCOc1c(OC)cc(C(=O)c2cccc(-c3ccc(C)cc3)n2)cc1OC`, the CLint scaled in series [1] was 397 mL/min/kg; in series [3] it was 136 mL/min/kg. The IC50 in series [2] came out at 4.2 nM; in [4] it was 6.6 nM; in series [5] it was 5 nM; in series [7], 2.4 nM; in series [8] it was 2.1 nM; in series [9] it was 3.7 nM. Besides, the t1/2 in series [6] was 8.4 min; in [10], 9 min.

Turning to `COc1cc(C(=O)c2ccnc(-c3ccc(C)c(O)c3)n2)cc(OC)c1OC`, the results for the CLint scaled in series [1] and in series [3] were 43.8 mL/min/kg and 142 mL/min/kg, respectively. In addition, the IC50 in [2] was found to be 12 nM; in series [4], 15.1 nM; in series [5], 7.2 nM; in series [7] it was 5.4 nM; in series [8] it was 2.8 nM; in series [9], 6.8 nM. Besides, the values for the t1/2 in series [6] and in series [10] were 78.6 min and 9 min, respectively.

In the case of `COc1cc(C(=O)c2cc(OC)c(OC)c(OC)c2)nc(-c2ccc(C)cc2)c1`, the CLint scaled in series [1] was 13 mL/min/kg; in series [3], 45 mL/min/kg. For the same compound, the IC50 in series [2] stood at 4.5 nM; in series [4], 11.1 nM; in series [5], 6.8 nM; in series [7] it was 7.7 nM; in series [8] it was 5 nM; in series [9] it was 7.9 nM. The results for the t1/2 in [6] and in [10] were greater than 240 min and 27.6 min, respectively.

`COc1cc(C(=O)c2cncc(-c3ccc(C)c(O)c3)n2)cc(OC)c1OC`: the CLint scaled in series [1] came to 28.7 mL/min/kg; in series [3] it was 26.6 mL/min/kg. In addition, the half-inhibitory concentration (IC50) came out at 26.7 nM in series [2]; 8 nM in [4]; 5.2 nM in series [5]; 5.2 nM in series [7]; 4 nM in series [8]; 5.9 nM in series [9]. Further, the results for the t1/2 in series [6] and in series [10] were 119.4 min and 46.8 min, respectively.

Consider `COc1cc(C(=O)c2cccc(-c3ccc(C)cc3)n2)cc(OC)c1OC`, for which the values for the CLint scaled in series [1] and in [3] were 1050 mL/min/kg and 317 mL/min/kg, respectively. The 50% inhibitory concentration (IC50) in series [2] was found to be 4.2 nM; in series [4] it was 5.3 nM; in series [5], 3.5 nM; in series [7] it was 3.1 nM; in [8], 3.9 nM; in [9], 2.4 nM. For the same compound, the t1/2 is 3 min in [6] and 4.2 min in [10].

Turning to `COc1cc(C(=O)c2cccc(-c3ccc(C(F)F)cc3)n2)cc(OC)c1OC`, the values for the CLint scaled in [1] and in series [3] were 271 mL/min/kg and 240 mL/min/kg, respectively. Also, the half-inhibitory concentration (IC50) in series [2] stood at 3.8 nM; in series [4] it was 4.7 nM; in series [5], 2.8 nM; in [7], 4.7 nM; in series [8], 4 nM; in [9], 3 nM. Besides, the t1/2 in series [6] came out at 12.6 min; in series [10], 5.4 min.

Regarding `COc1cc(C(=O)c2nc(-c3ccc(C(F)F)cc3)ccc2F)cc(OC)c1OC`, the CLint scaled in series [1] stood at 38.2 mL/min/kg; in series [3] it was 38.1 mL/min/kg. The IC50 was 2.4 nM in series [2]; 4.3 nM in [4]; 2.1 nM in [5]; 3.2 nM in series [7]; 4.2 nM in series [8]; 2.6 nM in series [9]. Further, the values for the t1/2 in [6] and in [10] were 90 min and 33 min, respectively.

`CC(=O)O[C@H]1C(=O)[C@@]2(C)[C@H]([C@H](OC(=O)c3ccccc3)[C@]3(O)C[C@H](OC(=O)[C@H](O)[C@@H](NC(=O)c4ccccc4)c4ccccc4)C(C)=C1C3(C)C)[C@]1(OC(C)=O)CO[C@@H]1C[C@@H]2O` [PACLITAXEL]: the Activity in [11] is 11.8%. Moreover, the figures for the IC50 in series [12] and in [13] were 0.5 nM and 186 nM, respectively.

`COc1cc(C(=O)c2cccc(-c3ccc4c(c3)CCN4)n2)cc(OC)c1OC`: the CLint scaled worked out at 818 mL/min/kg in series [1] and 83.6 mL/min/kg in series [3]. The 50% inhibitory concentration (IC50) in [2] stood at 5.5 nM; in series [4] it was 5.3 nM; in series [5], 5.9 nM; in [7] it was 5.6 nM; in series [8] it was 5.9 nM; in [9] it was 5 nM. Besides, the half-life in [6] (liver microsomes) amounted to 4.2 min; in series [10] (liver microsomes), 15 min.

Consider `COc1cc(C(=O)c2cccc(-c3ccc(C)c(O)c3)n2)cc(OC)c1OC`, for which the CLint scaled in series [1] is 57.3 mL/min/kg; in [3] it was 116 mL/min/kg. The IC50 in series [2] is 4.1 nM; in series [4] it was 3.3 nM; in series [5], 2.8 nM; in series [7] it was 2 nM; in series [8], 1.1 nM; in series [9], 2 nM. Besides, the Activity in series [14] worked out at 60%. In addition, in series [10], the t1/2 was determined as 10.8 min.

As for `CCc1c(OC)cc(C(=O)c2cccc(-c3ccc(C)c(O)c3)n2)cc1OC`, the CLint scaled in [1] turned out to be 16.2 mL/min/kg; in series [3] it was 22.9 mL/min/kg. Moreover, the half-inhibitory concentration (IC50) was 10.1 nM in series [2]; 37.4 nM in series [4]; 13.9 nM in series [5]; 24.8 nM in [7]; 8.7 nM in series [8]; 15.1 nM in series [9]. For the same compound, the t1/2 in series [6] is 211.8 min; in series [10], 54.6 min.

As to `COc1cc(C(=O)c2cccc(-c3ccc(C)cc3)n2)cc2c1OCCO2`, the CLint scaled is 1900 mL/min/kg in series [1] and 172 mL/min/kg in series [3]. In addition, the 50% inhibitory concentration (IC50) in series [2] is 3.2 nM; in series [4] it was 5.3 nM; in series [5], 3.1 nM; in series [7], 4.5 nM; in series [8], 3.2 nM; in [9], 3.6 nM. Also, the t1/2 is given as 1.8 min in series [6] and 7.2 min in series [10].

In turn, `COc1cc2c(c(OC)c1OC)-c1ccc(OC)c(=O)cc1[C@@H](NC(C)=O)CC2` [COLCHICINE] had an IC50 in [13] greater than 1000 nM.

Take `COc1cc(C(=O)c2cc(C)cc(-c3ccc(C)cc3)n2)cc(OC)c1OC`: the values for the CLint scaled in [1] and in series [3] were 824 mL/min/kg and 28.8 mL/min/kg, respectively. The IC50 in series [2] was 5.5 nM; in series [4] it was 16 nM; in [5], 6.4 nM; in series [7], 4.4 nM; in series [8], 9.7 nM; in series [9] it was 4.3 nM. For the same compound, the t1/2 in series [6] was found to be 4.2 min; in series [10] it was 43.2 min.

With `COc1cc(C(=O)c2cc(OC)c(OC)c(OC)c2)nc(-c2ccc(C)c(O)c2)c1`, the CLint scaled in [1] turned out to be 76.7 mL/min/kg; in [3], 29.2 mL/min/kg. The half-inhibitory concentration (IC50) in [2] stood at 16.9 nM; in series [4], 17.6 nM; in series [5], 17.2 nM; in series [7], 17.5 nM; in series [8] it was 14.7 nM; in series [9] it was 22.2 nM. Further, the t1/2 in series [6] worked out at 45 min; in series [10] it was 42.6 min.

`COc1cc(C(=O)c2c[nH]c(-c3ccc(C)c(O)c3)n2)cc(OC)c1OC`: the CLint scaled was 40.6 mL/min/kg in series [1] and 8.8 mL/min/kg in series [3]. In addition, the IC50 in [2] amounted to 57.6 nM; in series [4], 24.3 nM; in series [5] it was 78.4 nM; in [7], 32.4 nM; in series [8], 23.2 nM; in series [9] it was 41.2 nM. Further, the t1/2 is 84.6 min in [6] and 142.2 min in [10].

Turning to `COc1cc(-c2n[nH]c3ccc(-c4ccc(C)c(O)c4)nc23)cc(OC)c1OC`, the CLint scaled in series [1] stood at 20.5 mL/min/kg; in [3], 6.1 mL/min/kg. Besides, the IC50 came to 65.6 nM in [2]; 22.3 nM in series [4]; 22.9 nM in series [5]; 18.5 nM in series [7]; 54.9 nM in [8]; 21.1 nM in series [9]. For the same compound, the t1/2 stood at 167.4 min in [6] and 205.2 min in series [10].
